Reference: the Deep4Chem optical property database
“And” between values parts separate entries of the source, which are not always exact repeats. Equal values may be shown once.

Assay: solvent given as SMILES

Work on `CCN(CC)c1ccc2c(-c3ccccc3C(=O)O)c3c([o+]c2c1)/C(=C/C=C/c1ccc(N(C)C)cc1)CCC3` yielded a fluorescence lifetime (in ClCCl) of 1.03 ns.

With `CCCCCCCCCCN1C(=O)c2cc(NCCCOCCO)c3c4c(cc(NCCCOCCO)c(c24)C1=O)C(=O)N(CCCCCCCCCC)C3=O` the fluorescence lifetime (in CO) was 7.8 ns and the fluorescence lifetime (in ClC(Cl)Cl) was 9.7 ns.

`O=C([O-])c1ccccc1-c1c2cc(I)c(=O)c(I)c-2oc2c(I)c([O-])c(I)cc12` gave a fluorescence lifetime (in CC(C)O) of 0.66 ns, a fluorescence lifetime (in CCO) of 0.565 ns and a fluorescence lifetime (in CO) of 0.5 ns. It also gave a fluorescence lifetime (in O) of 0.115 ns.

Compound `CC1(C)c2ccccc2N(c2ccc3nc4c5ccc(N6c7ccccc7C(C)(C)c7ccccc76)cc5c5cc(N6c7ccccc7C(C)(C)c7ccccc76)ccc5c4nc3c2)c2ccccc21` has a fluorescence lifetime (in c1cc(-c2cccc(-n3c4ccccc4c4ccccc43)c2)cc(-n2c3ccccc3c3ccccc32)c1) of 32 ns.

In the case of `Cc1ccc(-c2cc(-c3ccc(N(C)C)cc3)c3c(N)nc(N4CCCC4)c(C#N)c3n2)cc1`, the fluorescence lifetime (in CC#N) is reported as 7.3 ns, the fluorescence lifetime (in CC(C)=O) is reported as 10.3 ns and the fluorescence lifetime (in CC(C)O) is reported as 11.2 ns. The fluorescence lifetime (in CO) was 3.6 ns, the fluorescence lifetime (in ClC(Cl)Cl) was 11.5 ns and the fluorescence lifetime (in ClCCl) was 12.6 ns. It also gave a fluorescence lifetime (in c1ccccc1) of 10.7 ns.

With `c1ccc2cc3cc(-c4cc(-c5nccs5)nc(-c5nccs5)c4)ccc3cc2c1` the fluorescence lifetime (in CC#N) was 6.92 ns, the fluorescence lifetime (in CCCCCC) was 3.35 ns and the fluorescence lifetime (in CO) was 4.04 ns. It also gave a fluorescence lifetime (in ClC(Cl)Cl) of 4.22 ns.

`CCN(CC)c1ccc2c(C)cc(=O)oc2c1` showed a fluorescence lifetime (in C1CCCCC1) of 2.8 ns, a fluorescence lifetime (in CC#N) of 3.4 ns and a fluorescence lifetime (in CCCCCCCCO) of 3.69 ns. The fluorescence lifetime (in CCCCCCO) was 3.68 ns, the fluorescence lifetime (in CCCCO) was 3.55 ns and the fluorescence lifetime (in CCCO) was 3.48 ns. The fluorescence lifetime (in CCO) was 3.15 ns and 2.04 ns and 3.1 ns, the fluorescence lifetime (in CCOC(C)=O) was 3.1 ns and the fluorescence lifetime (in CO) was 1.94 ns. For the same compound, the fluorescence lifetime (in O) was 0.36 ns and the fluorescence lifetime (in OCC(O)CO) was 3.8 ns.

`COc1ccc(C2=Cc3ccccc3P2(=O)c2ccccc2)cc1` (stereo not drawn) gave a fluorescence lifetime (in ClCCl) of 6.4 ns.

`CCCCn1c(-c2ccc(-c3nnc(-c4cccs4)o3)cc2)nc2c3ccccc3c3ccccc3c21` gave a fluorescence lifetime (in ClCCl) of 1.76 ns.

For `C(#Cc1ccc(-n2c3ccccc3c3ccccc32)cc1)c1ccc(-c2nc(-c3ccc(C#Cc4ccc(-n5c6ccccc6c6ccccc65)cc4)cc3)nc(-c3ccc(C#Cc4ccc(-n5c6ccccc6c6ccccc65)cc4)cc3)n2)cc1`, the fluorescence lifetime (in ClCCl) was 4.16 ns.

For `COc1ccc(-c2nc(C(C)=O)c(C)o2)cc1`, the fluorescence lifetime (in CC#N) was 3.92 ns, the fluorescence lifetime (in CCO) was 2.31 ns and the fluorescence lifetime (in CCOC(C)=O) was 4.53 ns. For the same compound, the fluorescence lifetime (in CCOCC) was 1.79 ns and the fluorescence lifetime (in ClCCl) was 1.7 ns.

`COc1ccc(-c2nc3c(c4c2-c2ccccc2CC4)-c2ccccc2CC3)cc1` gave a fluorescence lifetime (in CC#N) of 1.44 ns, a fluorescence lifetime (in CCCCCC) of 0.45 ns and a fluorescence lifetime (in CO) of 0.36 ns. The fluorescence lifetime (in CS(C)=O) was 0.67 ns and the fluorescence lifetime (in ClCCl) was 0.25 ns.

For `CN(C)c1ccc(/C=C/c2nc3c(ccc4ccccc43)s2)cc1`, the fluorescence lifetime (in C1CCCCC1) was 0.1 ns and 0.13 ns and the fluorescence lifetime (in CC#N) was 0.1 ns and 0.13 ns.

`CC1=CC(/C=C/c2ccc(N(C)C)cc2)=[N+]2C1=C(c1ccc(C#CCO[C@@H]3O[C@H](CO)[C@@H](O)C(O)[C@H]3O)cc1)c1c(C)cc(/C=C/c3ccc(N(C)C)cc3)n1[B-]2(F)F` (stereo partly drawn) showed a fluorescence lifetime (in CC#N) of 2.3 ns.

Compound `CCN(CC)c1ccc(/C=C/c2ccc(-c3ccc(/C=C/c4ccc(N(CC)CC)cc4)s3)s2)cc1` has a fluorescence lifetime (in C1CCOC1) of 1.1 ns, a fluorescence lifetime (in CC#N) of 1.14 ns and a fluorescence lifetime (in CC(C)=O) of 1.11 ns. The fluorescence lifetime (in CN(C)C=O) was 1.18 ns and the fluorescence lifetime (in Cc1ccccc1) was 1.02 ns.

`Cc1cccc(C)c1/C=C/c1nc(N2CCOCC2)c2c([n+]1[O-])CCCC2` gave a fluorescence lifetime (in ClCCl) of 9.1 ns.

With `C[N+]1=c2cc3c(cc2C(C)(C)CC1)=C(c1ccccc1C(=O)O)c1cc2c(cc1O3)Oc1cc3c(cc1=C2c1ccccc1C(=O)O)C(C)(C)CC[N+]=3C` the fluorescence lifetime (in ClC(Cl)Cl) was 2.34 ns.

With `COc1ccc(-c2cc(-c3ccc(C)cc3)nc3c(C#N)c(N4CCCC4)nc(N)c23)cc1` the fluorescence lifetime (in CC#N) was 11.7 ns, the fluorescence lifetime (in CC(C)=O) was 11.3 ns and the fluorescence lifetime (in CC(C)O) was 11.7 ns. It also gave a fluorescence lifetime (in CO) of 10.3 ns, a fluorescence lifetime (in ClC(Cl)Cl) of 13.1 ns and a fluorescence lifetime (in ClCCl) of 13.3 ns. It also gave a fluorescence lifetime (in c1ccccc1) of 12 ns.

`Cc1cc(C)cc(C)c1` gave a fluorescence lifetime (in C1CCCCC1) of 73 ns.

For `Fc1c(-n2c3ccccc3c3ccccc32)c(-c2nnc(-c3ccccc3)o2)c(-n2c3ccccc3c3ccccc32)c(-n2c3ccccc3c3ccccc32)c1-n1c2ccccc2c2ccccc21`, the fluorescence lifetime (in Cc1ccccc1) was 3.2 ns.

Work on `CN(C)c1ccc2nc(-c3ccc(/C=N/c4ccccc4)cc3)sc2c1` yielded a fluorescence lifetime (in C1CCCCC1) of 2.2 ns.

For `CCc1c(C)[nH]c(C2=[N+]3C(=Cc4c(C)c(CC)c(C)n4[B-]3(F)F)c3ccccc32)c1C`, the fluorescence lifetime (in ClCCl) was 6.3 ns.

`CCNc1ccc2c(C(F)(F)F)cc(=O)oc2c1` showed a fluorescence lifetime (in C1CCC2CCCCC2C1) of 3.67 ns, a fluorescence lifetime (in C1CCCCC1) of 3.56 ns and a fluorescence lifetime (in CC1CCCCC1) of 3.55 ns. For the same compound, the fluorescence lifetime (in CC#N) was 5.23 ns, the fluorescence lifetime (in CC(C)=O) was 5.08 ns and the fluorescence lifetime (in CC(C)O) was 5.14 ns. The fluorescence lifetime (in CCC(C)CC) was 3.39 ns, the fluorescence lifetime (in CCCC(C)C) was 3.38 ns and the fluorescence lifetime (in CCCCCC) was 3.3 ns. It also gave a fluorescence lifetime (in CCCCCCO) of 5.23 ns, a fluorescence lifetime (in CCCCO) of 5.24 ns and a fluorescence lifetime (in CCO) of 5.04 ns. It also gave a fluorescence lifetime (in CCOC(C)=O) of 4.83 ns and a fluorescence lifetime (in CO) of 4.84 ns.

For `N#Cc1cc(C#N)c(-n2c3ccccc3c3ccccc32)cc1-n1c2ccccc2c2ccccc21`, the fluorescence lifetime (in Cc1ccccc1) was 9 ns.

For `COC(=O)c1[nH]c(-c2ccccc2)c2nnc3ccc(OC)cc3c12`, the fluorescence lifetime (in ClCCl) was 2.23 ns.

In the case of `O=[N+]([O-])c1ccc2c(c1)-c1c3c(c4c([n+]1[B-](F)(F)O2)CCc1ccccc1-4)CCc1ccccc1-3`, the fluorescence lifetime (in ClCCl) is reported as 0.63 ns.

`Cc1cccc(C2=Cc3ccc4ccccc4[n+]3[B-](F)(F)O2)c1` gave a fluorescence lifetime (in ClC(Cl)Cl) of 1.58 ns.

For `CCCCCCCCC1(CCCCCCCC)c2cc(-c3ccc(C#N)cc3)ccc2-c2ccc(-c3ccc(C#N)cc3)cc21`, the fluorescence lifetime (in CN(C)C=O) was 0.95 ns.

`CCCCCCCCCCCCN1C(=O)c2c(c3ccc4cc(-c5ccc(Cl)cc5)c(OC)cc4c3c3c2ccc2cc(-c4ccc(Cl)cc4)c(OC)cc23)C1=O` gave a fluorescence lifetime (in ClCCl) of 6.15 ns.

With `COc1ccc(C2=CC(c3ccc4ccccc4c3)=[O+][B-](C(C)=O)(C(C)=O)O2)cc1` the fluorescence lifetime (in CC#N) was 3 ns and the fluorescence lifetime (in ClC(Cl)(Cl)Cl) was 1.2 ns.

Compound `COc1cc2cc(C#Cc3ccc(/C=C(\C#N)C(=O)O)cc3)c(=O)oc2cc1OC` has a fluorescence lifetime (in CC#N) of 1.16 ns.

For `CC[n+]1c(C=C2C(=O)C(C=C3N(C)c4ccccc4C3(C)C)=C2[O-])sc2ccccc21`, the fluorescence lifetime (in CO) was 0.24 ns and the fluorescence lifetime (in ClC(Cl)Cl) was 1.95 ns.

Work on `CCCN1C(=O)C(=CC=CC=C2Oc3ccccc3N2CCCS(=O)(=O)[O-])C(=O)N(CCC)C1=S` yielded a fluorescence lifetime (in CC(C)=O) of 0.854 ns, a fluorescence lifetime (in CCCCO) of 0.821 ns and a fluorescence lifetime (in CCO) of 0.465 ns. The fluorescence lifetime (in CO) was 0.288 ns and the fluorescence lifetime (in ClC(Cl)Cl) was 0.712 ns.

Compound `CCN(CC)c1ccc2c(c1)oc(=O)c1cnc3c(cnn3-c3ccccc3)c12` has a fluorescence lifetime (in ClCCl) of 2.48 ns.

Compound `C=CC(=O)Oc1ccc2cc(C=C)c(=O)oc2c1` has a fluorescence lifetime (in CC#N) of 2.81 ns.

Compound `CCCCCCCCCCCCN1C(=O)c2cccc3c(N(Cc4ccccn4)Cc4ccccn4)c4ccccc4c(c23)C1=O` has a fluorescence lifetime (in CCO) of 5.52 ns.

In the case of `COc1ccc2c(C=C(C#N)C#N)cc3ccc4cc(C=C(C#N)C#N)c5ccc(OC)cc5c4c3c2c1`, the fluorescence lifetime (in ClC(Cl)Cl) is reported as 1.5 ns.

In the case of `Cc1cc(C)c(B(c2c(C)cc(C)cc2C)c2ccc3ccc4cccc5ccc2c3c45)c(C)c1`, the fluorescence lifetime (in Cc1ccccc1) is reported as 3 ns.

In the case of `CC1=CC(C)=[N+]2C1=Cc1ccc(CCC(=O)ON3C(=O)CCC3=O)n1[B-]2(F)F`, the fluorescence lifetime (in CO) is reported as 5.7 ns.

`CC[B-]1(CC)c2cccc3c4c5c(cccc5c(c23)-c2cccc(C)[n+]21)[B-](CC)(CC)[n+]1c(C)cccc1-4` gave a fluorescence lifetime (in ClCCl) of 11.1 ns.

Compound `Cc1ccc(C2=[N+]3C(=Cc4c(C)cc(C)n4[B-]3(F)F)c3ccccc32)[nH]1` has a fluorescence lifetime (in C1CCOC1) of 6.54 ns, a fluorescence lifetime (in CC#N) of 6.32 ns and a fluorescence lifetime (in CCCCCC) of 7.31 ns. For the same compound, the fluorescence lifetime (in CO) was 6.5 ns, the fluorescence lifetime (in Cc1ccccc1) was 6.17 ns and the fluorescence lifetime (in ClCCl) was 6.65 ns.

In the case of `C[Si]1(C)c2cc(-c3cccs3)ccc2C=Cc2ccc(-c3cccs3)cc21`, the fluorescence lifetime (in ClCCl) is reported as 1.4 ns.
